Test results from patent US4948782A, “A method of promoting the growth of domestic animals with erythromycin derivative containing composition” (Kitasato Kenkyusho, priority 1987, dated 1990).
Where two headings read alike, the source gives them in different places.

Tests used:
Clostridium perfringens = assay type: in vivo
cockerels of broilers = assay: Survival rate and growing rate of cockerels of broilers fed the compound in rye-rations for 14 days; assay type: in vivo, cockerels of broilers (Habbard); details: for Gain (Ratio): control = 100.0; for Gain: mean
Method: The feeds prepared by adding 0, 1.0, 10.0 and 100.0 ppm of 8,9-anhydroerythromycin A 6,9-hemiketal propargyl chloride respectively to rye-rations, were given to 160 cockerels of broilers (Habbard) of day zero, as 10 cockerels/group×4 repeats/ section, and allowed to be taken freely and continuously for 14 days. The cockerels were positioned to be accommodated for each groups by the Latin square method in an electrically heated battery brooder (the inside thereof is heated at a temperature of 32° C.). The survival rate and the growing rate were measured at 7 and 14 days of age.
Experimental Example 2 was repeated except for changing the administration compound to ethyl-nor-8,9-anhydroerythromycin A 6,9-hemiketal. The result of measuring the survival rate and the growing rate in cockerals of broilers (Habbard) of day zero was shown in Table 8.

Q: `C#CC[N+](C)(C)[C@H]1C[C@@H](C)O[C@@H](O[C@@H]2[C@@H](C)[C@H](O[C@H]3C[C@@](C)(OC)[C@@H](O)[C@H](C)O3)[C@@H](C)C(=O)O[C@H](CC)[C@@](C)(O)[C@H](O)[C@@H](C)C3=C(C)C[C@@]2(C)O3)[C@@H]1O` [8,9-anhydroerythromycin A 6,9-hemiketal propargyl chloride] was tested. Which “Number of Cl. perfringens” value (Clostridium perfringens; 1.0 ppm (section 2), day 0) did it give?
A: 2.0 log CFU/g

Q: And the “Number of Cl. perfringens” value (Clostridium perfringens; 1.0 ppm (section 2), day 7)?
A: 6.1 log CFU/g

Q: What about the “Number of Cl. perfringens” value (Clostridium perfringens; 10.0 ppm (section 3), day 0) of the same compound?
A: 2.0 log CFU/g

Q: What about the “Number of Cl. perfringens” value (Clostridium perfringens; 10.0 ppm (section 3), day 7) of the same compound?
A: 4.9 log CFU/g

Q: What about the “Number of Cl. perfringens” value (Clostridium perfringens; 100.0 ppm (section 4), day 0) of the same compound?
A: 2.0 log CFU/g

Q: And the “Number of Cl. perfringens” value (Clostridium perfringens; 100.0 ppm (section 4), day 7)?
A: 6.2 log CFU/g

Q: And the Survival rate (cockerels of broilers; 1.0 ppm in feed, 0-7 days)?
A: 97.5%

Q: And the “Gain (Ratio)” value (cockerels of broilers; 1.0 ppm in feed, 0-7 days)?
A: 105.7

Q: What about the Gain (cockerels of broilers; 1.0 ppm in feed, 0-7 days) of the same compound?
A: 84.1 g/cockerel

Q: And the Survival rate (cockerels of broilers; 1.0 ppm in feed, 0-14 days)?
A: 97.5%

Q: And the “Gain (Ratio)” value (cockerels of broilers; 1.0 ppm in feed, 0-14 days)?
A: 105.3

Q: And the Gain (cockerels of broilers; 1.0 ppm in feed, 0-14 days)?
A: 258.2 g/cockerel

Q: And the Survival rate (cockerels of broilers; 10.0 ppm in feed, 0-7 days)?
A: 100.0%

Q: What about the “Gain (Ratio)” value (cockerels of broilers; 10.0 ppm in feed, 0-7 days) of the same compound?
A: 105.0

Q: And the Gain (cockerels of broilers; 10.0 ppm in feed, 0-7 days)?
A: 83.5 g/cockerel

Q: And the Survival rate (cockerels of broilers; 10.0 ppm in feed, 0-14 days)?
A: 100.0%

Q: And the “Gain (Ratio)” value (cockerels of broilers; 10.0 ppm in feed, 0-14 days)?
A: 103.7

Q: What about the Gain (cockerels of broilers; 10.0 ppm in feed, 0-14 days) of the same compound?
A: 254.3 g/cockerel

Q: And the Survival rate (cockerels of broilers; 100.0 ppm in feed, 0-7 days)?
A: 100.0%

Q: And the “Gain (Ratio)” value (cockerels of broilers; 100.0 ppm in feed, 0-7 days)?
A: 111.4

Q: And the Gain (cockerels of broilers; 100.0 ppm in feed, 0-7 days)?
A: 88.6 g/cockerel

Q: And the Survival rate (cockerels of broilers; 100.0 ppm in feed, 0-14 days)?
A: 100.0%

Q: What about the “Gain (Ratio)” value (cockerels of broilers; 100.0 ppm in feed, 0-14 days) of the same compound?
A: 107.4

Q: What about the Gain (cockerels of broilers; 100.0 ppm in feed, 0-14 days) of the same compound?
A: 263.3 g/cockerel

Q: `CC[C@H]1OC(=O)[C@H](C)[C@@H](O[C@H]2C[C@@](C)(OC)[C@@H](O)[C@H](C)O2)[C@H](C)[C@@H](O[C@@H]2O[C@H](C)C[C@H](N(C)CC)[C@H]2O)[C@@]2(C)CC(C)=C(O2)[C@H](C)[C@@H](O)[C@]1(C)O` [ethyl-nor-8,9-anhydroerythromycin A 6,9-hemiketal] was tested. Which “Number of Cl. perfringens” value (Clostridium perfringens; 1.0 ppm (section 2), day 0) did it give?
A: 7.03 log CFU/g

Q: What about the “Number of Cl. perfringens” value (Clostridium perfringens; 1.0 ppm (section 2), day 7) of the same compound?
A: 7.20 log CFU/g

Q: What about the “Number of Cl. perfringens” value (Clostridium perfringens; 10.0 ppm (section 3), day 0) of the same compound?
A: 6.83 log CFU/g

Q: And the “Number of Cl. perfringens” value (Clostridium perfringens; 10.0 ppm (section 3), day 7)?
A: 7.54 log CFU/g

Q: What about the “Number of Cl. perfringens” value (Clostridium perfringens; 100.0 ppm (section 4), day 0) of the same compound?
A: 6.59 log CFU/g

Q: And the “Number of Cl. perfringens” value (Clostridium perfringens; 100.0 ppm (section 4), day 7)?
A: 7.17 log CFU/g

Q: And the Survival rate (cockerels of broilers; 1.0 ppm in feed, 0-7 days)?
A: 97.5%

Q: And the “Gain (Ratio)” value (cockerels of broilers; 1.0 ppm in feed, 0-7 days)?
A: 103.1

Q: And the Gain (cockerels of broilers; 1.0 ppm in feed, 0-7 days)?
A: 85.7 g/cockerel

Q: What about the Survival rate (cockerels of broilers; 1.0 ppm in feed, 0-14 days) of the same compound?
A: 97.5%

Q: And the “Gain (Ratio)” value (cockerels of broilers; 1.0 ppm in feed, 0-14 days)?
A: 106.8

Q: And the Gain (cockerels of broilers; 1.0 ppm in feed, 0-14 days)?
A: 263.3 g/cockerel

Q: What about the Survival rate (cockerels of broilers; 10.0 ppm in feed, 0-7 days) of the same compound?
A: 97.5%

Q: What about the “Gain (Ratio)” value (cockerels of broilers; 10.0 ppm in feed, 0-7 days) of the same compound?
A: 98.3

Q: What about the Gain (cockerels of broilers; 10.0 ppm in feed, 0-7 days) of the same compound?
A: 81.7 g/cockerel

Q: And the Survival rate (cockerels of broilers; 10.0 ppm in feed, 0-14 days)?
A: 95.0%

Q: And the “Gain (Ratio)” value (cockerels of broilers; 10.0 ppm in feed, 0-14 days)?
A: 102.6

Q: What about the Gain (cockerels of broilers; 10.0 ppm in feed, 0-14 days) of the same compound?
A: 253.1 g/cockerel

Q: What about the Survival rate (cockerels of broilers; 100.0 ppm in feed, 0-7 days) of the same compound?
A: 100.0%

Q: What about the “Gain (Ratio)” value (cockerels of broilers; 100.0 ppm in feed, 0-7 days) of the same compound?
A: 104.3

Q: What about the Gain (cockerels of broilers; 100.0 ppm in feed, 0-7 days) of the same compound?
A: 86.7 g/cockerel

Q: And the Survival rate (cockerels of broilers; 100.0 ppm in feed, 0-14 days)?
A: 100.0%

Q: And the “Gain (Ratio)” value (cockerels of broilers; 100.0 ppm in feed, 0-14 days)?
A: 105.4

Q: What about the Gain (cockerels of broilers; 100.0 ppm in feed, 0-14 days) of the same compound?
A: 259.8 g/cockerel
